Results on 1 compound are retold here after patent publication US10399992B2, “Process for preparing AD-35” (Zhejiang Hisun Pharmaceutical Co., Ltd., priority 2016, dated 2019).

Series [1] deals with acetylcholinesterase (Homo sapiens, UniProt P22303). Description: inhibiting acetylcholinesterase in vitro. In kind it is biochemical. The conditions noted are these: compared with donepezil.
Series [2] in a line: Morris water maze test. In kind it is in vivo. The conditions noted are these: compared with donepezil.
The test system of series [3] is TNF-α. Nature of the series: rat model of Alzheimer's disease induced by Aβ25-35: TNF-α production and release. In kind it is in vivo.
For series [4], the system named is IL-1β. Description: rat model of Alzheimer's disease induced by Aβ25-35: IL-1β production and release. In kind it is in vivo.
Series [5] deals with nerve cells. Nature of the series: rat model of Alzheimer's disease induced by Aβ25-35: toxicity of Aβ25-35 to nerve cells. In kind it is in vivo.
Series [6] can be described thus: chelation of transition metal ions in vitro. In kind it is physicochemical.
Series [7] is described as follows: Phase 1 Clinical Single Ascending Dose study (SAD). In kind it is in vivo. Particulars: subjects; 90 mg in a single dose.
Series [8] can be described thus: acute toxicity test in mice. The conditions noted are these: compared with donepezil.

acetylcholinesterase, sequence (P22303 32-614): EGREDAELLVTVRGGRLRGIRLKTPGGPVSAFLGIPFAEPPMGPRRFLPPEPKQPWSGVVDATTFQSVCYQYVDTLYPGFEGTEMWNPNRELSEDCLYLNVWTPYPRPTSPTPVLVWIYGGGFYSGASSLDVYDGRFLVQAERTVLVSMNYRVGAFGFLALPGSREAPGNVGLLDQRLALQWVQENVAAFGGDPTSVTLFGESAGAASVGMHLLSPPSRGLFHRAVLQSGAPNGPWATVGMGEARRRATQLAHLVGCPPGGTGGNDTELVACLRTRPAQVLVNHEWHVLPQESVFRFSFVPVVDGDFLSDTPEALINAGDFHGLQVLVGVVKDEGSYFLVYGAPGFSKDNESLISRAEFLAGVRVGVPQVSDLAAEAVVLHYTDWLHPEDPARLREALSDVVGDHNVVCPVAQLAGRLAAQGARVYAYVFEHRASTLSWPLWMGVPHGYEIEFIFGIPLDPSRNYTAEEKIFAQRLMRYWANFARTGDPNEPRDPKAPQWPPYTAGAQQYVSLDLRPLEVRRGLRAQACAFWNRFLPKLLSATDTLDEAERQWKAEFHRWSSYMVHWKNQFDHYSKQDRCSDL

Regarding `O=C1c2cc3c(cc2C2(CC2)N1CCC1CCN(Cc2ccccn2)CC1)OCO3` [AD-35, 6-[2-[1-(2-pyridylmethyl)-4-piperidinyl]ethyl]spiro[[1,3]dioxolo[4,5-f]isoindole-7,1′-cyclopropane]-5-one phosphate], in series [1], the “activity of inhibiting acetylcholinesterase in vitro relative to donepezil” value was “about one-tenth of the activity of donepezil”. Also, the “efficacy in the Morris water maze test (improving memory and learning ability)” value in series [2] was “comparable efficacy to that of donepezil”. Moreover, in series [3], the “production and release of pro-inflammatory cytokine TNF-α” value is reported as “significantly inhibit”. Also, the “production and release of pro-inflammatory cytokine IL-1β” value in series [4] is given as “significantly inhibit”. Besides, the “toxicity of Aβ25-35 to nerve cells” value in series [5] was “greatly reduces the toxicity of Aβ25-35 to nerve cells”. Also, in series [6], the “ability to chelate transition metal ions such as Cu^2+” value is “exhibits a certain ability to chelate transition metal ions”. Moreover, the adverse reactions entry in series [7] was “did not develop adverse reactions”. The acute toxicity result in series [8] is “much less toxic than donepezil”.
